pIC50: −log10 of the molar value. “Also recorded” adds a separate entry of the source. One block for each compound: values may come before it.
How the values were obtained:
[1] = biological target: T1, Human reticulocyte 15-lipoxygenase-1 (15-hLO-1) (Homo sapiens, UniProt P16050); assay: Lipoxygenase UV-Vis assay; conditions: for fold loss in activity against 15-hLO-1 relative to lead 5: compared with compound 5 (19 nM)
T1 sequence (P16050 1-662): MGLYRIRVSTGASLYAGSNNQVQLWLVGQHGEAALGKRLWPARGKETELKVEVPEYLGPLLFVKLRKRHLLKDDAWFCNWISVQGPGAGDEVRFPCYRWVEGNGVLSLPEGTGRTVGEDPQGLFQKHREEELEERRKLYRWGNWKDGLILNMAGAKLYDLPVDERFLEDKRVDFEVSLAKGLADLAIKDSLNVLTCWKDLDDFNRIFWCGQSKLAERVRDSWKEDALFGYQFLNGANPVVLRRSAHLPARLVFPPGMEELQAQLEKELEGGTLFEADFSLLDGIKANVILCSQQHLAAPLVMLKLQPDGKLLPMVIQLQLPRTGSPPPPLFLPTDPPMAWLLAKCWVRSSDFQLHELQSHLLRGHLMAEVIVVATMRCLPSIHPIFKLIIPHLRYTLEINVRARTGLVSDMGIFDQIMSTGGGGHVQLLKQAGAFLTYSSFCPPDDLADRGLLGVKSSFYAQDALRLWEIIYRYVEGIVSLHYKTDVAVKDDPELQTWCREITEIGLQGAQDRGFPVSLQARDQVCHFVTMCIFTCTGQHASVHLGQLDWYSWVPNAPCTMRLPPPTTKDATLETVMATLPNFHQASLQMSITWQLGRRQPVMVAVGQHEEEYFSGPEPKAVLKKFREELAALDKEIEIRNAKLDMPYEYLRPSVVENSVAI

15-hLO-1 [2] = biological target: T2, 15-hLO-1 (Homo sapiens, UniProt P16050); assay: Steady-state inhibition kinetics; conditions: replot of 1/Vmax vs inhibitor; AA substrate, 0.01% Triton X-100
T2 sequence (P16050 1-662): T1 sequence (P16050 1-662)

15-hLO-1 [3] = biological target: T2, 15-hLO-1; assay: Reversibility of inhibition; type: biochemical; conditions: 50 μM inhibitor, 10 min incubation, then 2 h dialysis
[4] = Solubility as noted during biochemical characterization; type: physicochemical; conditions: noted where Ki^app could not be obtained accurately
15-hLO-1 [5] = biological target: T2, 15-hLO-1; conditions: cited from earlier work

Compound: O=C(OCC#CCSc1nnc(-c2cccc3ccccc23)o1)c1c[nH]cn1 [Analogue 16]
fold loss in activity against 15-hLO-1 relative to lead 5 [1]: approximately 70 fold | Ki’ (dissociation from the secondary site) (15-hLO-1 [2]): 8100 ± 900 nM

Compound: O=C(OCC#CCSc1nnc(-c2ccc(F)cc2)o1)c1ccc(F)cc1 [Analogue 47]
pIC50 [1]: > 8.00

Compound: O=C(NCC#CCSc1nnc(-c2cccc3ccccc23)o1)c1cccs1 [Analogue 56]
pIC50 [1]: 5.70 | fold loss in activity against 15-hLO-1 relative to lead 5 [1]: 100 fold

Compound: O=C(OCC#CCSc1nnc(-c2cccc3ccccc23)s1)c1cccs1 [Analogue 58]
solubility (in words) [4]: noticeably less soluble; also recorded: low solubility

Compound: O=C(OCC#CCNc1nnc(-c2cccc3ccccc23)o1)c1cccs1 [Analogue 60]
pIC50 [1]: 5.89

Compound: O=C(CCC#CCSc1nnc(-c2cccc3ccccc23)o1)c1ccccc1 [Analogue 67]
solubility (in words) [4]: reduced solubility; also recorded: low solubility

Compound: COc1ccc(-c2oc3cc(OC)c(OC)c(OC)c3c(=O)c2OC)cc1OC [hexamethoxyflavone]
pIC50 (15-hLO-1 [5]): 4.30

Next, values leading:

reversibility of inhibition (15-hLO-1 [3]): reversible
Compound: O=C(OCC#CCSc1nnc(-c2cccc3ccccc23)o1)c1ccccc1F [Analogue 25]

solubility (in words) [4]: low solubility
Compound: O=C(OCC#CCSc1nnc(-c2cc3ccccc3cc2O)o1)c1ccc(F)cc1 [Analogue 53]

pIC50 [1]: < 4.00
Compound: O=C(OCc1ccc(CSc2nnc(-c3cccc4ccccc34)o2)cc1)c1ccc(F)cc1 [Analogue 62]

activity against 15-hLO-1 (in words) [1]: complete loss in activity
Compound: Fc1ccc(COCC#CCSc2nnc(-c3cccc4ccccc34)o2)cc1 [Analogue 66]
